Measured values taken from PubChem BioAssay (NCI).
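Values below derive from 48-hour exposures of cells grown in 96-well plates, with endpoints linearly interpolated between the two concentrations bracketing the appropriate inhibition level. The concentration for full growth arrest is given as TGI.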

Experiments:
Experiment in all cases: inhibition of tumour cell growth, NCI panel, 48 h
[1] = tested on: U251 CNS
[2] = tested on: KM12 colon
[3] = tested on: OVCAR-4 ovarian
[4] = tested on: M14 melanoma
[5] = tested on: HL-60(TB) leukemia
[6] = tested on: RPMI-8226 leukemia
[7] = tested on: SR leukemia
[8] = tested on: ACHN renal
[9] = tested on: NCI/ADR-RES ovarian
[10] = tested on: BT-549 breast

Molecule `CCC1(O)CC(OC2CC(N(C)C)C(OC3CC(O)C(OC4CCC(=O)C(C)O4)C(C)O3)C(C)O2)c2c(O)c3c(c(O)c2C1C(=O)OC)C(=O)c1cccc(O)c1C3=O` (stereo unspecified) has a TGI [1] of 1.42 µM, a TGI [2] of 1.28 µM and a TGI [3] of 0.21 µM. The TGI [4] was 0.013 µM, the TGI [5] was 0.0496 µM and the TGI [6] was 0.0755 µM.
In the case of `Cc1sc2nc3n(c(=O)c2c1C)N=C(c1ccc([N+](=O)[O-])cc1)CS3`, the TGI [1] is reported as greater than 100 µM, the TGI [7] is reported as greater than 100 µM and the TGI [8] is reported as greater than 100 µM. For the same molecule, the TGI [2] was greater than 100 µM, the TGI [9] was greater than 100 µM and the TGI [5] was greater than 100 µM. For the same molecule, the TGI [10] was greater than 100 µM and the TGI [6] was greater than 100 µM.
`C#CCCCC(=O)N(C(=O)CS(=O)CC)c1ccccc1` (stereo unspecified) showed a TGI [1] greater than 100 µM, a TGI [7] greater than 100 µM and a TGI [8] greater than 100 µM. It also gave a TGI [2] greater than 100 µM, a TGI [3] greater than 100 µM and a TGI [9] greater than 100 µM. For the same molecule, the TGI [4] was greater than 100 µM, the TGI [5] was greater than 100 µM and the TGI [10] was greater than 100 µM.
For `C/C=C1\CC(C(=O)OCC)CCCCCCCCCCC1=O` (stereo unspecified), the TGI [1] was greater than 100 µM, the TGI [8] was greater than 100 µM and the TGI [2] was greater than 100 µM. The TGI [3] was greater than 100 µM, the TGI [9] was greater than 100 µM and the TGI [4] was greater than 100 µM. It also gave a TGI [5] greater than 100 µM and a TGI [10] greater than 100 µM.
Molecule `Cc1cccc(NC2=NCCO2)c1Cl` has a TGI [1] greater than 100 µM, a TGI [7] greater than 100 µM and a TGI [8] greater than 100 µM. The TGI [2] was greater than 100 µM, the TGI [3] was greater than 100 µM and the TGI [9] was greater than 100 µM. For the same molecule, the TGI [4] was greater than 100 µM, the TGI [5] was greater than 100 µM and the TGI [6] was greater than 100 µM.
With `C[N+](C)([O-])CCCNc1ccnc2cccc([N+](=O)[O-])c12` the TGI [1] was greater than 100 µM, the TGI [7] was greater than 100 µM and the TGI [8] was greater than 100 µM. The TGI [2] was greater than 100 µM, the TGI [3] was 55.3 µM and the TGI [4] was greater than 100 µM. The TGI [5] was 54.1 µM, the TGI [10] was greater than 100 µM and the TGI [6] was 57.6 µM.
Molecule `Cc1nc2c(=O)[nH]c3ccc(Cl)cc3c2o1` has a TGI [1] greater than 100 µM, a TGI [7] greater than 100 µM and a TGI [8] greater than 100 µM. The TGI [2] was greater than 100 µM, the TGI [3] was greater than 100 µM and the TGI [9] was greater than 100 µM. For the same molecule, the TGI [4] was greater than 100 µM, the TGI [10] was greater than 100 µM and the TGI [6] was greater than 100 µM.
`COc1ccc(N2C(=O)C3CC4=CC(=O)C[C@H]4[C@H]32)cc1` (stereo partly specified) showed a TGI [1] greater than 100 µM, a TGI [7] greater than 100 µM and a TGI [8] greater than 100 µM. The TGI [2] was greater than 100 µM, the TGI [3] was greater than 100 µM and the TGI [9] was greater than 100 µM. For the same molecule, the TGI [4] was greater than 100 µM, the TGI [10] was greater than 100 µM and the TGI [6] was greater than 100 µM.
`COC(=O)[C@H](CCSC)NC(=O)c1ccc(CNC(=O)/C(C)=C/c2ccccc2)cc1` showed a TGI [1] greater than 100 µM, a TGI [7] greater than 100 µM and a TGI [8] greater than 100 µM. It also gave a TGI [2] greater than 100 µM, a TGI [3] greater than 100 µM and a TGI [9] of 68.5 µM. The TGI [4] was 83.7 µM, the TGI [10] was 60.9 µM and the TGI [6] was greater than 100 µM.
Molecule `O=S(=O)(/N=C(\NO)Nc1ccc(Cl)cc1)c1ccc(-c2ccccn2)s1` has a TGI [1] greater than 100 µM, a TGI [7] greater than 100 µM and a TGI [8] greater than 100 µM. For the same molecule, the TGI [2] was greater than 100 µM, the TGI [3] was greater than 100 µM and the TGI [9] was greater than 100 µM. The TGI [4] was greater than 100 µM, the TGI [5] was greater than 100 µM and the TGI [10] was greater than 100 µM.
In the case of `CN(CCO)/N=N/c1[nH]ncc1C(N)=O`, the TGI [1] is reported as greater than 100 µM, the TGI [2] is reported as greater than 100 µM and the TGI [3] is reported as greater than 100 µM. The TGI [9] was greater than 100 µM, the TGI [5] was greater than 100 µM and the TGI [6] was greater than 100 µM.
`c1ccc(CCn2cncn2)cc1` was tested, and the TGI [1] was greater than 100 µM, the TGI [7] was greater than 100 µM and the TGI [8] was greater than 100 µM. The TGI [2] was greater than 100 µM, the TGI [3] was greater than 100 µM and the TGI [4] was greater than 100 µM. For the same molecule, the TGI [5] was greater than 100 µM.
Molecule `Cc1ccc2c(=O)c(-c3n[nH]c(=S)s3)c[nH]c2n1` has a TGI [1] greater than 100 µM, a TGI [8] greater than 100 µM and a TGI [2] greater than 100 µM. For the same molecule, the TGI [3] was greater than 100 µM, the TGI [9] was greater than 100 µM and the TGI [4] was greater than 100 µM. The TGI [5] was greater than 100 µM, the TGI [10] was greater than 100 µM and the TGI [6] was greater than 100 µM.
`c1ccc(C2[C@@H]3CCCc4ccccc4C3=NN2c2ccccc2)cc1` (stereo partly specified) gave a TGI [1] greater than 100 µM, a TGI [7] greater than 100 µM and a TGI [8] greater than 100 µM. It also gave a TGI [2] greater than 100 µM, a TGI [3] greater than 100 µM and a TGI [5] greater than 100 µM. It also gave a TGI [6] greater than 100 µM.
Molecule `CC1(C)c2ccccc2C(O)C12CCC(=O)CC2` (stereo unspecified) has a TGI [1] greater than 100 µM, a TGI [7] greater than 100 µM and a TGI [8] greater than 100 µM. For the same molecule, the TGI [2] was greater than 100 µM, the TGI [3] was greater than 100 µM and the TGI [9] was greater than 100 µM. The TGI [4] was greater than 100 µM, the TGI [5] was greater than 100 µM and the TGI [6] was greater than 100 µM.
Molecule `CC1(C)C2CCC(N)(C2)C1O` (stereo unspecified) has a TGI [1] greater than 100 µM, a TGI [7] greater than 100 µM and a TGI [8] greater than 100 µM. The TGI [2] was greater than 100 µM, the TGI [3] was greater than 100 µM and the TGI [9] was greater than 100 µM. The TGI [4] was greater than 100 µM, the TGI [10] was greater than 100 µM and the TGI [6] was greater than 100 µM.
With `Brc1cccc[n+]1-c1ccc2cc(-[n+]3ccccc3Br)ccc2c1` the TGI [1] was 29.8 µM, the TGI [8] was 37.2 µM and the TGI [2] was 40 µM. It also gave a TGI [9] greater than 100 µM, a TGI [4] greater than 100 µM and a TGI [5] greater than 100 µM. The TGI [10] was greater than 100 µM and the TGI [6] was 63.8 µM.
For `COc1cc2c(cc1OCCCCCOc1cc3c(cc1OC)C(=O)N1CCC[C@H]1CN3)N=C[C@@H]1CCCN1C2=O`, the TGI [1] was 5.24 µM, the TGI [7] was 1.11 µM and the TGI [8] was 27.6 µM. The TGI [2] was 15.2 µM, the TGI [3] was greater than 100 µM and the TGI [9] was greater than 100 µM. For the same molecule, the TGI [4] was 10.8 µM, the TGI [5] was 30 µM and the TGI [10] was 34.9 µM.
With `COc1cc2c(c(OC)c1OC)-c1ccc(SC)cc1C(=O)CC2` the TGI [1] was greater than 100 µM, the TGI [7] was greater than 100 µM and the TGI [8] was greater than 100 µM. For the same molecule, the TGI [3] was greater than 100 µM, the TGI [4] was greater than 100 µM and the TGI [5] was 10.8 µM. For the same molecule, the TGI [10] was greater than 100 µM and the TGI [6] was greater than 47.7 µM.
For `CCCC1(N)CC(OC)OC(C)C1O` (stereo unspecified), the TGI [1] was greater than 100 µM, the TGI [7] was greater than 100 µM and the TGI [8] was greater than 100 µM. The TGI [2] was greater than 100 µM, the TGI [9] was greater than 100 µM and the TGI [4] was greater than 100 µM. It also gave a TGI [5] greater than 100 µM, a TGI [10] greater than 100 µM and a TGI [6] greater than 100 µM.
`CC1=CC(=O)/C(=C/n2c(=S)[nH]c3ccccc32)C(=O)O1` gave a TGI [1] greater than 100 µM, a TGI [8] greater than 100 µM and a TGI [2] greater than 100 µM. For the same molecule, the TGI [3] was greater than 100 µM, the TGI [9] was greater than 100 µM and the TGI [4] was greater than 100 µM. It also gave a TGI [5] greater than 100 µM, a TGI [10] greater than 100 µM and a TGI [6] greater than 100 µM.
`CC1CN=C(c2ccc(COc3ccc(C4=NCC(C)N4)cc3)cc2)N1` (stereo unspecified) gave a TGI [1] greater than 100 µM, a TGI [8] greater than 100 µM and a TGI [2] greater than 100 µM. For the same molecule, the TGI [3] was greater than 100 µM, the TGI [9] was greater than 100 µM and the TGI [4] was greater than 100 µM. For the same molecule, the TGI [5] was greater than 100 µM, the TGI [10] was greater than 100 µM and the TGI [6] was greater than 100 µM.
In the case of `CC[C@H](C)C1=C(OC(C)=O)[N@+]2([O-])Oc3ccc(-c4c(OC(C)=O)c(OC(C)=O)c(-c5ccc(OC(C)=O)cc5)c(OC(C)=O)c4OC(C)=O)cc3O[C@]2([C@@H](C)CC)C(=O)N1OC(C)=O`, the TGI [1] is reported as greater than 50 µM, the TGI [7] is reported as 28 µM and the TGI [8] is reported as greater than 50 µM. For the same molecule, the TGI [2] was greater than 50 µM, the TGI [3] was 39.6 µM and the TGI [9] was greater than 50 µM. It also gave a TGI [4] greater than 50 µM, a TGI [5] of 21.7 µM and a TGI [6] of 22.4 µM.
`CC(=O)N(CN1C(=O)CCC1C(=O)O)c1ccccc1Cl` (stereo unspecified) was tested, and the TGI [1] was greater than 100 µM, the TGI [8] was greater than 100 µM and the TGI [2] was greater than 100 µM. It also gave a TGI [3] greater than 100 µM, a TGI [9] greater than 100 µM and a TGI [4] greater than 100 µM. It also gave a TGI [5] greater than 100 µM and a TGI [6] greater than 100 µM.
